The subject of experiment [1] is Aorta Muscle. As to the kind of experiment: Inhibition of aorta muscle contraction. The settings on record: Table II; concentration 0.1 μM. In kind it is cell-based.
Experiment [2] deals with trachealis muscle. As to the kind of experiment: Inhibition of calcium dependent smooth muscle contraction (KCl-challenged trachea). The settings on record: Canis lupus familiaris; for inhibition at 0.1 µM: concentration 0.1 μM; for inhibition at 0.5 µM: concentration 0.5 μM; for inhibition at 10 µM: concentration 10.0 μM; for inhibition at 2 µM: concentration 2.0 μM; for inhibition at 0.2 µM: concentration 0.2 μM. In kind it is cell-based, dog. The protocol:
The test for inhibition of calcium dependent smooth muscle contraction is determined according to the following procedure:
Trachea from dogs sacrificed by excess KCl injection are stored overnight at 4° C. in oxygenated Krebs-Henseleit buffer. Tracheal rings, one cartilage segment wide (5-10 mm), are cut starting from the bronchial end. After cutting the cartilage, the trachealis muscle tissue is suspended in oxygenated Krebs-Henseleit buffer at 37° C. in a 25 ml tissue bath. After a 60 minutes equilibration period, the tissues are challenged with 10 μM carbachol. After 5 minutes the tissues are rinsed and allowed to rest 50 minutes. The tissues are then challenged with 50 mM KCl and, after 30 minutes, the contractions are quantitated. The tissues are then rinsed and reequilibrated for 50 minutes. Test compounds are then added for 10 minutes, and the tissue is rechallenged with 50 mMKcl. After 30 minutes, the contraction is recorded and used to determine the % inhibition of control.
The percent inhibition of smooth muscle contraction is calculated from response data before and after drug treatment. [formula] A rating is assigned to the compound depending upon the percent inhibition obtained.

Experiment [3] concerns the target T1, calcium channels (Oryctolagus cuniculus, UniProt P15381).
T1 construct: from tissue; host or cells: heart of female New Zealand white rabbits, membrane fraction (42,000×g pellet)
As to the kind of experiment: Inhibition of nitrendipine binding (3H-nitrendipine displacement, rabbit heart membranes). Also noted: species or system rabbit (New Zealand white). As to conditions: 90 min, 4° C. As to the method:
(1) Inhibition of nitrendipine binding to calcium channels.
The assay for inhibition of nitrendipine binding follows the following procedure:
Female, New Zealand white rabbits (1-2 kg) are sacrificed by cervical dislocation, and the heart is immediately removed, cleaned, and chopped into small pieces. The tissue is homogenized in 5× volume of 0.05M Hepes buffer, pH 7.4. The homogenate is centrifuged at 4000×g for 10 minutes; the supernatant is recentrifuged at 42,000×g for 90 minutes. The resulting membrane pellet is resuspended (0.7 ml/g weight) in 0.05M Hepes, pH 7.4 and stored at -70° C. until used. Each tube of the binding assay contains ^3 H- nitrendipine (0.05-0.50 nM), buffer, membranes (0.10 ml), and test compound in a total volume of 1.0 ml. After 90 minutes at 4° C., the bound nitrendipine is separated from the unbound by filtration on Whatman GF/C fibers. After rinsing, the filters are dried and counted in a liquid scintillation counter.
Non-specific binding of ^3 H-nitrendipine (that amount bound in the presence of excess unlabelled nitrendipine) is subtracted from the total bound to obtain specifically bound radiolabeled nitrendipine. The amount of specifically bound nitrendipine in the presence of a test compound is compared to that amount bound in the absence of a compound. A percent displacement (or inhibition) can then be obtained.

[4] abbreviates: Table II, read-out: Inhibition Trachea Muscle Contraction % Inhibition.
[5] abbreviates: Table I, read-out: Inhibition of Ca2+ dependent smooth muscle contraction % Inhibition.

Molecules are shown by their SMILES. Values joined by “and” are separate entries in the source; they are usually repeats but may differ in a detail not shown here. Equal entries are not always repeated. Where two headings read alike, the source gives them in different places.

T1 sequence (P15381 whole entry, other chains not shown): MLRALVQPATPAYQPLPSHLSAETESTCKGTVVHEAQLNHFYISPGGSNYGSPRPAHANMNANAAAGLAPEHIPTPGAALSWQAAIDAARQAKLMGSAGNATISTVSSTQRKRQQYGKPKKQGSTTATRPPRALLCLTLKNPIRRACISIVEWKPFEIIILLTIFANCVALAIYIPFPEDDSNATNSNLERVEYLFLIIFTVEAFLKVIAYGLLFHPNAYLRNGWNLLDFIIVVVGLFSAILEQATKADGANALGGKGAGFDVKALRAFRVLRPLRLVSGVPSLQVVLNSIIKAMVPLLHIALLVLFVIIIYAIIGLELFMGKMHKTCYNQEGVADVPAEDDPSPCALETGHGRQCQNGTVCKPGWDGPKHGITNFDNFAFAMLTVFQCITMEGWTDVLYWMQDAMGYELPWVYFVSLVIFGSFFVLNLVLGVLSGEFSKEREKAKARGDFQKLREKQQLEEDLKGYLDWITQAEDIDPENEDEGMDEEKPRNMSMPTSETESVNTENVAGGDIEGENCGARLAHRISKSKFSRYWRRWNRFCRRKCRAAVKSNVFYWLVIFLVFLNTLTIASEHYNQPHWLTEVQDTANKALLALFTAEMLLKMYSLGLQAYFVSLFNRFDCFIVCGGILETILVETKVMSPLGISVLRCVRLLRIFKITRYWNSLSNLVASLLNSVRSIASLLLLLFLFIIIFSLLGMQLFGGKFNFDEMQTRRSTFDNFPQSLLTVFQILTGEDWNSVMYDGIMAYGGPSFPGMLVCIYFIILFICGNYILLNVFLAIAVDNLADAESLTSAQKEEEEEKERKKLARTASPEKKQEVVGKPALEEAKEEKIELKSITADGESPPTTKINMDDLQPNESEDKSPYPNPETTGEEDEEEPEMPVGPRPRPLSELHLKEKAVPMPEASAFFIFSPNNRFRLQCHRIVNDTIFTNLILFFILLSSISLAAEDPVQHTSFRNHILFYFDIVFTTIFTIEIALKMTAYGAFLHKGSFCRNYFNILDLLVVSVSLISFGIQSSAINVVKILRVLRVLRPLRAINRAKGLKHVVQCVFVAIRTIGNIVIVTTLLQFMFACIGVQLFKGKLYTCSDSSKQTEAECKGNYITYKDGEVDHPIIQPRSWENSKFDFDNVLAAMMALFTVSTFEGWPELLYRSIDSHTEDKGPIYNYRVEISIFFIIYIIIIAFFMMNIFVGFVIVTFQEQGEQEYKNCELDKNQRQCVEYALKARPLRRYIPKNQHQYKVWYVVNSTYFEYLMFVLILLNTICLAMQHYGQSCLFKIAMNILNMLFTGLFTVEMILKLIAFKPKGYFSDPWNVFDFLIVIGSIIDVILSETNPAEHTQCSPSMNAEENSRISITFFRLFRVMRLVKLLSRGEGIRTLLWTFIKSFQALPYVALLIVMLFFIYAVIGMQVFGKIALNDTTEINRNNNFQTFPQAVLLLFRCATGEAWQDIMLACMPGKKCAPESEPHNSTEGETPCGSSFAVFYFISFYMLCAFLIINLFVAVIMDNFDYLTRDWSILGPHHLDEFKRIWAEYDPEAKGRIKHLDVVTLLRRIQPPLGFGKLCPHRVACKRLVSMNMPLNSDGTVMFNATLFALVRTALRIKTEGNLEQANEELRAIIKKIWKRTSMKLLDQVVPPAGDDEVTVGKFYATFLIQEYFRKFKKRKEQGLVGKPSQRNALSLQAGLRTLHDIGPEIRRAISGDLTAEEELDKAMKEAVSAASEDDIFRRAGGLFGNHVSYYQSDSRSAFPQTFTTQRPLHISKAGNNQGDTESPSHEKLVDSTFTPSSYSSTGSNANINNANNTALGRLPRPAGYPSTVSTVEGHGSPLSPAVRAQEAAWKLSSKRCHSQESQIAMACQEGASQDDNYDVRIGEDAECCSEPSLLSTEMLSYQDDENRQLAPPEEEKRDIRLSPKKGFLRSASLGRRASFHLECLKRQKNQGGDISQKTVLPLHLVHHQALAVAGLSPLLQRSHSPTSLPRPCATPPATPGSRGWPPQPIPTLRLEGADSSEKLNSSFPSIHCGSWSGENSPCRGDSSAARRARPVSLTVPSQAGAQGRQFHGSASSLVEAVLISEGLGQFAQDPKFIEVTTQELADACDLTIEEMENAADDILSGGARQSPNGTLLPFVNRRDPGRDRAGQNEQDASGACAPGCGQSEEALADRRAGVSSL
T1 sequence (P13806 27-960 partner limits assumed, other chains not shown): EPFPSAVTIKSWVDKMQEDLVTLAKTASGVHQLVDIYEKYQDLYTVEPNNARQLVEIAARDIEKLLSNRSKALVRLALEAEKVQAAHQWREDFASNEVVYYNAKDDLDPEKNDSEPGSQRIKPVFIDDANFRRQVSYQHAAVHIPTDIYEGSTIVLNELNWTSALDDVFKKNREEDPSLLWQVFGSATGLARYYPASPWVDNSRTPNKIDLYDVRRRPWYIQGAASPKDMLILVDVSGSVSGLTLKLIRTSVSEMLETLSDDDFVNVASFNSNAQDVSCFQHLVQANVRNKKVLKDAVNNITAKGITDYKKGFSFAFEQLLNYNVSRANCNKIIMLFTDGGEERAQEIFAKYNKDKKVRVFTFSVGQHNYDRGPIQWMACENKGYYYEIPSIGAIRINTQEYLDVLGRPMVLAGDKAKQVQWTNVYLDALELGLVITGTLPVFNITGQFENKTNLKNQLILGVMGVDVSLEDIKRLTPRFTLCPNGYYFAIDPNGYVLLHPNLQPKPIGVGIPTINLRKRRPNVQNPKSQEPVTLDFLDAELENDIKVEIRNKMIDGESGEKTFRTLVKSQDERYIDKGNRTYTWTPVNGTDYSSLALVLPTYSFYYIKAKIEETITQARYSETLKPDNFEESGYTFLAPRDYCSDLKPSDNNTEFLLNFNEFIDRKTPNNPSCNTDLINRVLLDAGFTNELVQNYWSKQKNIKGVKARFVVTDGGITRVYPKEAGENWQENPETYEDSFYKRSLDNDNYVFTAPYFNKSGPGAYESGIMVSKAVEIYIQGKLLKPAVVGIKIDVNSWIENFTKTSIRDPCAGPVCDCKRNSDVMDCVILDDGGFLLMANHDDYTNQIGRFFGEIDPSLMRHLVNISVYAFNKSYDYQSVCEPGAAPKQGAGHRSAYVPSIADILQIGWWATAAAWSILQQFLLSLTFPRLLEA
T1 sequence (P13806 961-1106 partner limits assumed, other chains not shown): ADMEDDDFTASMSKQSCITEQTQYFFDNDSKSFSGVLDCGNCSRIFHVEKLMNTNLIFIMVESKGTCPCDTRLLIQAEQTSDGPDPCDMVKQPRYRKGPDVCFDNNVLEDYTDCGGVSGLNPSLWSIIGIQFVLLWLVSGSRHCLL

Usually inhibition stands for the change of the read-out against control, counted positive when it falls. One may read the IC50 as the concentration that inhibits the measured activity by half. On to `CC1=C(C(=O)OCCN(C)Cc2ccccc2)C(c2cccc(Cl)c2Cl)C2=C(CCCCCS2(=O)=O)N1` (stereo not shown) [5 2,3-Cl2C6 H3], for which the inhibition at 0.1 µM in experiment [1] is 58%; in experiment [2] (setting [4]), 26%. The IC50 in experiment [3] (Table II) was determined as 75 nM. For `COC(=O)C1=C(C)NC2=C(C1c1c(F)c(F)c(F)c(F)c1F)S(=O)(=O)CCC2` (stereo not shown) [3 CH3 C6 F5], in experiment [2] (setting [5]), the inhibition at 0.5 µM was 46%. Further, the IC50 in experiment [3] (Table I) worked out at 400 nM. On to `COC(=O)C1=C(C)NC2=C(C1c1cccc([N+](=O)[O-])c1)S(=O)(=O)CCC2` (stereo not shown) [3 CH3 3-NO2C6 H4, Methyl 3,4,5,8,-tetrahydro-6-methyl-8-(3-nitrophenyl)-1,1-dioxo-2H-thiopyrano-[3,2-b]pyridine-7-carboxylate], for which the inhibition at 10 µM in experiment [2] (setting [5]) was 57%. Further, in experiment [3] (Table I), the IC50 came to 160 nM.

With `CC1=C(C(=O)OCCN(C)Cc2ccccc2)C(c2ccccc2OC(F)F)C2=C(CCCCS2(=O)=O)N1` (stereo not shown) [4 2-OCHF2C6 H4, N-Benzyl-N-methylaminoethyl 9-(2-cifluoromethoxyphenyl)-2,4,5,6,9-hexahydro-7-methyl-1,1-dioxothiacyclohepteno[3,2-b]pyridine-8-carboxylate], the inhibition at 0.1 µM in experiment [2] (setting [4]) was found to be 54%. Moreover, the IC50 in experiment [3] (Table II) stood at 72 nM. Regarding `CC1=C(C(=O)OCCN(C)Cc2ccccc2)C(c2ccccc2[N+](=O)[O-])C2=C(CCCCCS2(=O)=O)N1` (stereo not shown) [5 2-NO2C 6 H4 CH2 CH2 NCH3 CH2 C6 H5], the inhibition at 0.1 µM in experiment [1] was 73%; in experiment [2] (setting [4]), 69%. For the compound `CCOC(=O)C1=C(C)NC2=C(C1c1cccc([N+](=O)[O-])c1)S(=O)(=O)CCCCC2` (stereo not shown) [5 CH2 CH3 3-NO2C6 H4], in experiment [2] (setting [5]), the inhibition at 0.1 µM was 71%. The IC50 in experiment [3] (Table I) worked out at 5.5 nM. As to `COC(=O)C1=C(C)NC2=C(C1c1cccc([N+](=O)[O-])c1)S(=O)(=O)CCCC2` (stereo not shown) [4 CH3 3-NO2C6 H4], the inhibition at 2 µM in experiment [2] (setting [5]) came to 94%. In experiment [3] (Table I), the IC50 is 27 nM and 39 nM. Consider `CCOC(=O)C1=C(C)NC2=C(C1c1c(F)c(F)c(F)c(F)c1F)S(=O)(=O)CCCC2` (stereo not shown) [4 CH2 CH3 C6 F5, Ethyl 9-(2,3,4,5,6-pentafluorophenyl)-2,3,4,5,6,9-hexahydro-7-methyl-1,1-dioxothiacyclohepteno[3,2-b]pyridine-8-carboxylate], for which the inhibition at 0.5 µM in experiment [2] (setting [5]) was found to be 95%. For the same compound, the half-inhibitory concentration (IC50) in experiment [3] (Table I) was 28 nM.

Take `CCOC(=O)C1=C(C)NC2=C(C1c1ccccc1[N+](=O)[O-])S(=O)(=O)CCC2` (stereo not shown) [3 CH2 CH3 2-NO2C6 H4]: the inhibition at 10 µM in experiment [2] (setting [5]) came out at 75%. In addition, in experiment [3] (Table I), the IC50 was found to be 1500 nM. Regarding `CC1=C(C(=O)OC2CCCSC2)C(c2c(F)c(F)c(F)c(F)c2F)C2=C(CCCCS2(=O)=O)N1` (stereo not shown) [4 C6 F5 drawing 13], the inhibition at 2 µM in experiment [2] (setting [4]) came to 53%. As for `COC(=O)C1=C(C)NC2=C(C1c1cccc(Cl)c1)S(=O)(=O)CC2` (stereo not shown) [2 CH3 3-ClC6 H4], the IC50 in experiment [3] (Table I) was 930 nM.

Consider `CC1=C(C(=O)OC2CCCSC2)C(c2cccc(Cl)c2Cl)C2=C(CCCCS2(=O)=O)N1` (stereo not shown) [4 2,3-Cl2C6 H3 drawing 14], for which the inhibition at 2 µM in experiment [2] (setting [4]) was 54%.

Turning to `CC1=C(C(=O)OCCN(C)Cc2ccccc2)C(c2cccc([N+](=O)[O-])c2)C2=C(CCCCS2(=O)=O)N1` (stereo not shown) [4 CH2 CH2 NCH3 CH2 C6 H5 3-NO2C6 H4, N-Benzyl-N-methylaminoethyl 2,4,5,6,9-hexahydro-7-methyl-9-(3-nitrophenyl)-1,1-dioxothiacyclohepteno[3,2-b]pyridine-8-carboxylate], the inhibition at 0.2 µM in experiment [2] (setting [5]) came to 68%. For the same compound, the IC50 in experiment [3] (Table I) amounted to 130 nM. As to `CC1=C(C(=O)OCCN(C)Cc2ccccc2)C(c2cccc([N+](=O)[O-])c2)C2=C(CCS2(=O)=O)N1` (stereo not shown) [2 CH2 CH2 NCH3 CH2 C6 H5 3-NO2C6 H4, N-Benzyl-N-methylaminoethyl 2,3,4,7-tetrahydro-5-methyl-7-(3-nitrophenyl)-1,1-dioxothieno[3,2-b]pyridine-6-carboxylate], in experiment [2] (Table I, concentration 5.0 μM, read-out: Inhibition of Ca2+ dependent smooth muscle contraction % Inhibition), the inhibition at 5 µM was 65%. Besides, the IC50 in experiment [3] (Table I) turned out to be 1000 nM. Consider `COC(=O)C1=C(C)NC2=C(C1c1ccccc1[N+](=O)[O-])S(=O)(=O)CC2` (stereo not shown) [2 CH3 2-NO2C6 H4, Methyl 2,3,4,7,-tetrahydro-5-methyl-7-(2-nitrophenyl)-1,1-dioxothieno[3,2-b]pyridine-6-carboxylate], for which the inhibition at 2 µM in experiment [2] (setting [5]) worked out at 63%. Besides, the IC50 in experiment [3] (Table I) turned out to be 1350 nM. In the case of `COC(=O)C1=C(C)NC2(O)CCS(=O)(=O)C2C1c1ccccc1[N+](=O)[O-]` (stereo not shown) [Methyl 2,3,3a,4,7,7a-hexahydro-3a-hydroxy-5-methyl-7-(2-nitrophenyl)-1,1-dioxo-thieno[3,2-b]pyridine-6-carboxylate], in experiment [2] (setting [5]), the inhibition at 2 µM worked out at 26%. `CCOC(=O)C1=C(C)NC2=C(C1c1cccc([N+](=O)[O-])c1)S(=O)(=O)CCC2` (stereo not shown) [3 CH2 CH3 3-NO2C6 H4, Ethyl 3,4,5,8-tetrahydro-6-methyl-8-(3-nitrophenyl)-1,1-dioxo-2H-thio-pyrano[3,2-b]pyridine-7-carboxylate]: in experiment [2] (setting [5]), the inhibition at 10 µM stood at 69%. In addition, in experiment [3] (Table I), the IC50 amounted to 170 nM.

As for `CCOC(=O)C1=C(C)NC2=CCCCCS(=O)(=O)C2C1c1cccc([N+](=O)[O-])c1` (stereo not shown) [Ethyl 3,4,5,7,10,10a-hexahydro-8-methyl-10-(3-nitrophenyl)-1,1-dioxo-2H-thiacycloocteno[3,2-b]pyridine-9-carboxylate], the inhibition at 2 µM in experiment [2] (setting [5]) turned out to be 53%. Moreover, the concentration for half-maximal inhibition (IC50) in experiment [3] (Table I) turned out to be 270 nM.

Consider `COC(=O)C1=C(C)NC2=C(C1c1ccccc1[N+](=O)[O-])S(=O)(=O)CCC2` (stereo not shown) [3 CH3 2-NO2C6 H4], for which the inhibition at 10 µM in experiment [2] (setting [5]) worked out at 84%. Besides, the IC50 in experiment [3] (Table I) came out at 890 nM. Take `CC1=C(C(=O)OCCN(C)Cc2ccccc2)C(c2c(F)c(F)c(F)c(F)c2F)C2=C(CCCCS2(=O)=O)N1` (stereo not shown) [4 CH2 CH2 NCH3 CH2 C6 H5 C6 F5, N-Benzyl-N-methylaminoethyl 9-(2,3,4,5,6-pentafluorophenyl)-2,3,4,5,6,9-hexahydro-7-methyl-1,1-dioxothiacyclohepteno[3,2-b]pyridine-8-carboxylate]: the inhibition at 0.2 µM in experiment [2] (setting [5]) was determined as 74%. In addition, the half-maximal inhibitory concentration (IC50) in experiment [3] (Table I) amounted to 35 nM. On to `CC1=C(C(=O)OCCN(C)Cc2ccccc2)C(c2cccc([N+](=O)[O-])c2)C2=C(CCCS2(=O)=O)N1` (stereo not shown) [3 CH2 CH2 NCH3 CH2 C6 H5 3-NO2C6 H4, N-Benzyl-N-methyl-2-aminoethyl 2,3,4,8-tetrahydro-6-methyl-8-(3-nitrophenyl)-1,1-dioxo-5H-thiopyrano[3,2-b]pyridine-7-carboxylate Hemioxalate], for which the inhibition at 2 µM in experiment [2] (setting [5]) worked out at 46%. The concentration for half-maximal inhibition (IC50) in experiment [3] (Table I) came out at 1850 nM. In the case of `COC(=O)C1=C(C)NC2=C(C1c1cccc([N+](=O)[O-])c1)S(=O)(=O)CC2` (stereo not shown) [2 CH3 3-NO2C6 H4], the inhibition at 10 µM in experiment [2] (setting [5]) is 76%. Besides, the IC50 in experiment [3] (Table I) was 700 nM. In experiment [1], `CCOC(=O)C1=C(C)NC2=C(C1c1cccnc1SC)S(=O)(=O)CCCCC2` (stereo not shown) [drawing 8 CH2 CH3] gave an inhibition at 0.1 µM of 42%. Also, the inhibition at 0.3 µM in experiment [2] (Table II, concentration 0.3 μM) was 79%. With `COC(=O)C1=C(C)NC2=C(C1c1c(F)c(F)c(F)c(F)c1F)S(=O)(=O)CC2` (stereo not shown) [2 CH3 C6 F5], the inhibition at 2 µM in experiment [2] (setting [5]) was determined as 47%. For the same compound, in experiment [3] (Table I), the IC50 was 150 nM. As to `COC(=O)C1=C(C)NC2=C(C1c1cccc(C#N)c1)S(=O)(=O)CC2` (stereo not shown) [2 CH3 3-CNC6 H4], in experiment [3] (Table I), the IC50 turned out to be 2000 nM. Regarding `CCOC(=O)C1=C(C)NC2=C(C1c1c(F)c(F)c(F)c(F)c1F)S(=O)(=O)CC2` (stereo not shown) [2 CH2 CH3 C6 F5], the inhibition at 2 µM in experiment [2] (setting [5]) amounted to 48%. Also, in experiment [3] (Table I), the IC50 amounted to 560 nM. Regarding `CC1=C(C(=O)OCc2ccccc2)C(c2ccccc2[N+](=O)[O-])C2=C(CCCS2(=O)=O)N1` (stereo not shown) [3 CH2 C6 H5 2-NO2C6 H4], the inhibition at 10 µM in experiment [2] (setting [5]) was found to be 69%. Moreover, the IC50 in experiment [3] (Table I) is 3400 nM. As to `CCOC(=O)C1=C(C)NC2=C(C1c1cccc([N+](=O)[O-])c1)S(=O)(=O)CCCC2` (stereo not shown) [4 CH 2 CH3 3-NO2C6 H4, Ethyl 2,3,4,5,6,9-hexahydro-7-methyl-9-(3-nitrophenyl)-1,1-dioxothiacyclohepteno[3,2-b]pyridine-8-carboxylate], the inhibition at 2 µM in experiment [2] (setting [5]) came out at 96%. In addition, the IC50 in experiment [3] (Table I) stood at 44 nM.
